# Tests used:
# mCTR = target: T1, mCTR (Mus musculus, UniProt Q60755); assay: Mouse receptor cAMP HTRF assay (BacMam, HeLa), mCTR
# T1 sequence (Q60755 42-496 isoform Q60755-2 limits assumed): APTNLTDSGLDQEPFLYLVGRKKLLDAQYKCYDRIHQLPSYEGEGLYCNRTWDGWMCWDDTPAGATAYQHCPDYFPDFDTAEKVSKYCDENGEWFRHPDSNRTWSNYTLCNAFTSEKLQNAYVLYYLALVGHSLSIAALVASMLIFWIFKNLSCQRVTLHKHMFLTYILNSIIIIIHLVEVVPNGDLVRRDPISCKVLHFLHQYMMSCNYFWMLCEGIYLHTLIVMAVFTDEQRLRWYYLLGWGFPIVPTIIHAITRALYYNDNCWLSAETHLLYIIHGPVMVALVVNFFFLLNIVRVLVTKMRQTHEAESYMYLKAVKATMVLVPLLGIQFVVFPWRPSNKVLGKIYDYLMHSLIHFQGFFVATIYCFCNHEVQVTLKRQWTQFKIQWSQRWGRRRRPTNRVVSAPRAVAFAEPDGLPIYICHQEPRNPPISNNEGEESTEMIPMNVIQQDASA
# Description: (§1) Mouse Receptors (Functional Assay Only). Cell culture: HeLa cells were cultured in an incubator at 37 °C and 5% CO2, in cell culture medium (DMEM with 10% [v/v] FBS, 1% [w/w] penicillin/streptomycin).
# (§2) Cell seeding in T75 flasks (day 1): The day before transfection of the cells, 2 x 10^6 HeLa cells were seeded in three T75 flasks and incubated overnight. Media was removed from 1–2 T175 flasks and cells were washed once with Dulbecco PBS (with Mg2+ and Ca2+). Cells were detached with 2 mL TrypLE Express for 5 min in an incubator. Five mL pre-warmed media was added to each T75 flask and mixed with the cell suspension. Cells were counted in 100 µL of this suspension. The cell suspension was centrifuged at 1200 rpm for 4 min and the supernatant was discarded. The cells were re-suspended in media and 2 x 10^6 cells were seeded in approximately 15 mL in each of the three T75 flasks. The flasks were incubated overnight.
# (§3) with 20 µL poly-d-lysin/well for 2–3 h at 37 °C. The plates were washed twice with PBS and allowed
# (§4) Transfection of cells (day 2): Reagents were acclimated to room temperature for 30 min. Media was
# (§5) removed from the T75 flasks, and cells were washed once with PBS (with Mg2+ and Ca2+). Cells were
# (§6) Seeding of transfected cells in assay plates (day 2): Following the 3-h transduction, T75 flasks were
# (§7) washed once with PBS (with Mg2+ and Ca2+). […]
# mL pre-warmed media and counted.
# [1] = cited from earlier work
# Description: The major chemical degradation products of pramlintide have been identified to include deamidation and isomerization of asparagine residues in positions 3, 21, and 22 and to a lesser degree in positions 14 and 35.[22] Reduction of these deamidation reactions in pramlintide has been obtained by acidic formulation.[23]
# cAMY1R [2] = assay: Whole-cell competition binding, cAMY1R; conditions: IC50 for the CTR divided by that of the AMYR, canine receptors
# cAMY1R [3] = assay: Species-specific cAMP assay, cAMY1R
# cAMY3R [4] = assay: Species-specific cAMP assay, cAMY3R
# cCTR = assay: Species-specific cAMP assay, cCTR; conditions: cAMP HTRF, transiently transfected BHK cells, 30 min room temperature, five experiments
# cAMY3R [5] = assay: Whole-cell competition binding, cAMY3R; conditions: IC50 for the CTR divided by that of the AMYR, canine receptors
# mAMY3R = target: T2, mAMY3R (Mus musculus, UniProt Q60755+Q9WUP1); assay: Mouse receptor cAMP HTRF assay (BacMam, HeLa), mAMY3R; conditions: ratio of cAMP EC50 values, mouse receptors
# T2 sequence (Q60755 42-496 isoform Q60755-2 limits assumed): T1 sequence (Q60755 42-496 isoform Q60755-2 limits assumed)
# T2 sequence (Q9WUP1 24-147 partner limits assumed): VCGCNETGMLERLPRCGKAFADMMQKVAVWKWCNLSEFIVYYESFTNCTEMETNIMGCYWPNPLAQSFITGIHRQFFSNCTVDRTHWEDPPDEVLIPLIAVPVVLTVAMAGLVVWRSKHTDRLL
# Description: as §1, §2, §3, §4, §5, §6, §7
# mL pre-warmed media and counted.
# [6] = cAMP HTRF, transiently transfected BHK cells, 30 min room temperature, five experiments
# [7] = ratio of cAMP EC50 values, canine receptors
structure (smiles),measurement,setting,value
"CC[C@H](C)[C@H](NC(=O)[C@@H]1CCCN1C(=O)CNC(=O)[C@H](Cc1ccccc1)NC(=O)[C@H](CC(N)=O)NC(=O)[C@H](CC(N)=O)NC(=O)[C@H](CO)NC(=O)[C@H](CO)NC(=O)[C@H](Cc1c[nH]cn1)NC(=O)[C@@H](NC(=O)[C@H](CC(C)C)NC(=O)[C@H](Cc1ccccc1)NC(=O)[C@H](CC(N)=O)NC(=O)[C@H](C)NC(=O)[C@H](CC(C)C)NC(=O)[C@H](CCCNC(=N)N)NC(=O)[C@H](CCC(N)=O)NC(=O)[C@@H](NC(=O)[C@H](C)NC(=O)[C@@H]1CSSC[C@H](NC(=O)[C@@H](N)CCCCN)C(=O)N[C@@H](CC(N)=O)C(=O)N[C@@H]([C@@H](C)O)C(=O)N[C@@H](C)C(=O)N[C@@H]([C@@H](C)O)C(=O)N1)[C@@H](C)O)C(C)C)C(=O)N[C@@H](CC(C)C)C(=O)N1CCC[C@H]1C(=O)N1CCC[C@H]1C(=O)N[C@H](C(=O)N[C@@H](CC(N)=O)C(=O)N[C@H](C(=O)NCC(=O)N[C@@H](CO)C(=O)N[C@@H](CC(N)=O)C(=O)N[C@H](C(=O)N[C@@H](Cc1ccc(O)cc1)C(N)=O)[C@@H](C)O)C(C)C)[C@@H](C)O [pramlintide, reference compound]",EC50,mCTR,3.09 nM
same,half-life in plasma,[1],30 to 50 min
same,"Ratio CTR/AMY1R (canine, binding)",cAMY1R [2],67
same,cAMY1R pEC50,cAMY1R [3]; [6],10.77
same,"Ratio CTR/AMY1R (canine, functional)",cAMY1R [3]; [7],1
same,cAMY3R pEC50,cAMY3R [4]; [6],10.88
same,"Ratio CTR/AMY3R (canine, functional)",cAMY3R [4]; [7],1
same,cCTR pEC50,cCTR,10.90
same,"Ratio CTR/AMY3R (canine, binding)",cAMY3R [5],112
same,"Ratio CTR/AMY3R (mouse, functional)",mAMY3R,8

# — PMC11284788, “NN1213 – A Potent, Long-Acting, and Selective Analog of Human Amylin” (Journal of Medicinal Chemistry, 2024)
